Biological target: T1, SIRT1 (Homo sapiens, UniProt Q96EB6)
T1 sequence (Q96EB6 1-747): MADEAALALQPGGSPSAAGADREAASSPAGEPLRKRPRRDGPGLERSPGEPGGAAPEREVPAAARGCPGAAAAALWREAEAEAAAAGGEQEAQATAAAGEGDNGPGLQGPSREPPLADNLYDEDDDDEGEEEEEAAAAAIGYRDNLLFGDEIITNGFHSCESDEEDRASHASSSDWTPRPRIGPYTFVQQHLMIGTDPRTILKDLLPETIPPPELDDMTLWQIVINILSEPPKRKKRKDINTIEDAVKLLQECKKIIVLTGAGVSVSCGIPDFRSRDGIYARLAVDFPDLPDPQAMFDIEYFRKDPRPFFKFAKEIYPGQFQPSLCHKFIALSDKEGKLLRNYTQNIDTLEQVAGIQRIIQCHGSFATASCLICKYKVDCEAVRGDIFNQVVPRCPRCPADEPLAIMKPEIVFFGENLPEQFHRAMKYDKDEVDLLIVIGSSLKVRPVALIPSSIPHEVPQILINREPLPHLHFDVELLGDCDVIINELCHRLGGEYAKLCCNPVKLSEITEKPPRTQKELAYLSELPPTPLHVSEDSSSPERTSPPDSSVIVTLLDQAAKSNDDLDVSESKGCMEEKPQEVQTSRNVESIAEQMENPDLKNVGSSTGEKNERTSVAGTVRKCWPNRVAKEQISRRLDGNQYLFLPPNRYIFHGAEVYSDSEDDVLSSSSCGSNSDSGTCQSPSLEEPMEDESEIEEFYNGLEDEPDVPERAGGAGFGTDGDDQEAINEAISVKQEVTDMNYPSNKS
Assay: Mass spectrometry based assay to identify modulators of SIRT1 activity (deacetylation of p53-based acetylated peptide)
Assay type: biochemical
Details: 10 nM SIRT1, 0.5 μM peptide substrate, 120 μM βNAD+, 25 minutes at 25° C.; for EC1.5 μM: SIRT1 activation

| Compound | % Fold Act. (percent maximum fold activation) | EC1.5 μM |
| --- | --- | --- |
| Cn1c(-c2cccc(C(F)(F)F)c2)nc2c(C(=O)Nc3cccc(OC[C@@H](O)CO)n3)cccc2c1=O [Compound 356] | A (Fold activation>200%) | A (EC1.5<1.0 μM) |
| O=C(Nc1cccc2c(=O)cc(-c3ccccc3C(F)(F)F)[nH]c12)c1cnccn1 [Compound 445] | A (Fold activation>200%) | A (EC1.5<1.0 μM) |
| Cn1c(-c2cccc(C(F)(F)F)c2)nc2c(NC(=O)c3cccnc3OCC(O)CO)cccc2c1=O (stereo not drawn) [Compound 334] | A (Fold activation>200%) | B (EC1.5 1-25 μM) |
| O=C(Nc1cccnc1)c1cccc2c(=O)cc(-c3ccccc3C(F)(F)F)[nH]c12 [Compound 437] | A (Fold activation>200%) | A (EC1.5<1.0 μM) |
| O=C(Nc1cccc2c(=O)cc(-c3cccc(Cl)c3)[nH]c12)c1cnccn1 [Compound 447] | A (Fold activation>200%) | A (EC1.5<1.0 μM) |
| Cn1c(-c2cncnc2)nc2c(C(=O)Nc3ccccn3)cccc2c1=O [Compound 260] | B (Fold Activation<200%) | C (EC1.5>25 μM) |
| Cn1c(-c2cccc(C(F)(F)F)c2)nc2c(NC(=O)c3cscn3)cccc2c1=O [Compound 201] | B (Fold Activation<200%) | A (EC1.5<1.0 μM) |
| Cn1c(-c2cccc(OC(F)(F)F)c2)nc2c(C(=O)Nc3nccs3)cccc2c1=O [Compound 200] | B (Fold Activation<200%) | B (EC1.5 1-25 μM) |
| CCCn1c(-c2cccc(C(F)(F)F)c2)nc2c(C(=O)Nc3ccccn3)cccc2c1=O [Compound 270] | B (Fold Activation<200%) | C (EC1.5>25 μM) |
| Cn1c(-c2cnccn2)nc2c(NC(=O)c3cnccn3)cccc2c1=O [Compound 281] | B (Fold Activation<200%) | C (EC1.5>25 μM) |
| O=C(Nc1cccc2c(=O)cc(-c3cccc(C(F)(F)F)c3)[nH]c12)c1cncs1 [Compound 416] | A (Fold activation>200%) | A (EC1.5<1.0 μM) |
| Cn1c(-c2cccc(C(F)(F)F)c2)nc2c(C(=O)Nc3ccncn3)cccc2c1=O [Compound 303] | A (Fold activation>200%) | B (EC1.5 1-25 μM) |
| Cn1c(-c2cccc(C(F)(F)F)c2)nc2c(C(=O)Nc3nnc(C(C)(C)C)s3)cccc2c1=O [Compound 297] | A (Fold activation>200%) | A (EC1.5<1.0 μM) |
| Cn1c(-c2cccc(S(C)(=O)=O)c2)nc2c(C(=O)Nc3ccccn3)cccc2c1=O [Compound 222] | A (Fold activation>200%) | B (EC1.5 1-25 μM) |
| Cn1c(-c2cccc(C(F)(F)F)c2)nc2c(C(=O)Nc3nc(CN4CCNCC4)cs3)cccc2c1=O [Compound 366] | A (Fold activation>200%) | A (EC1.5<1.0 μM) |
| Cn1c(-c2cccc(C(F)(F)F)c2)nc2c(C(=O)Nc3ncc(CN4CCCC4)s3)cccc2c1=O [Compound 358] | A (Fold activation>200%) | B (EC1.5 1-25 μM) |
| Cn1c(-c2cccc(OC(F)(F)F)c2)nc2c(C(=O)Nc3ccccn3)cccc2c1=O [Compound 207] | A (Fold activation>200%) | A (EC1.5<1.0 μM) |
| O=C(Nc1ccccn1)c1cccc2c(=O)[nH]c(-c3ccccc3OC(F)F)nc12 [Compound 328] | A (Fold activation>200%) | B (EC1.5 1-25 μM) |
| Cn1c(-c2cccc(OC(F)(F)F)c2)nc2c(NC(=O)c3cscn3)cccc2c1=O [Compound 203] | B (Fold Activation<200%) | C (EC1.5>25 μM) |
| Cn1c(-c2cccc(C(F)(F)F)c2)nc2c(NS(=O)(=O)c3cccnc3)cccc2c1=O [Compound 361] | B (Fold Activation<200%) | C (EC1.5>25 μM) |
| Cn1ccc(-c2nc3c(NC(=O)c4cnccn4)cccc3c(=O)n2C)n1 [Compound 290] | B (Fold Activation<200%) | C (EC1.5>25 μM) |

| Compound | % Fold Act. (percent maximum fold activation) | EC1.5 μM |
| --- | --- | --- |
| CCn1c(-c2cccc(C(F)(F)F)c2)nc2c(NC(=O)c3cnccn3)cccc2c1=O [Compound 232] | A (Fold activation>200%) | A (EC1.5<1.0 μM) |
| Cn1c(-c2cccc(C(F)(F)F)c2)nc2c(C(=O)Nc3cccc(CN4CCOCC4)c3)cccc2c1=O [Compound 302] | A (Fold activation>200%) | A (EC1.5<1.0 μM) |
| COc1ccc(NC(=O)c2cccc3c(=O)n(C)c(-c4cccc(C(F)(F)F)c4)nc23)cc1OC [Compound 220, N-(3,4-dimethoxyphenyl)-3-methyl-4-oxo-2-(3-(trifluoromethyl)phenyl)-3,4-dihydroquinazoline-8-carboxamide] | A (Fold activation>200%) | A (EC1.5<1.0 μM) |
| Cc1cc(C)nc(NC(=O)c2cccc3c(=O)n(C)c(-c4cccc(C(F)(F)F)c4)nc23)c1 [Compound 306] | A (Fold activation>200%) | A (EC1.5<1.0 μM) |
| Cn1c(-c2cccc(C(F)(F)F)c2)nc2c(C(=O)Nc3ccnc(CN4CCCC4)n3)cccc2c1=O [Compound 359] | A (Fold activation>200%) | B (EC1.5 1-25 μM) |
| Cn1c(-c2ccc(OC(F)(F)F)cc2)nc2c(NC(=O)c3cnccn3)cccc2c1=O [Compound 252] | B (Fold Activation<200%) | C (EC1.5>25 μM) |
| O=C(Nc1cccnc1)c1cccc2c(=O)cc(-c3ccccc3OC(F)F)[nH]c12 [Compound 440] | A (Fold activation>200%) | B (EC1.5 1-25 μM) |
| Cn1c(-c2cccc(C(F)(F)F)c2)nc2c(C(=O)Nc3nc(CN4CCCC4)cs3)cccc2c1=O [Compound 357] | A (Fold activation>200%) | A (EC1.5<1.0 μM) |
| Cn1c(-c2cccc(C(F)(F)F)c2)nc2c(C(=O)Nc3cccc(N4CCOCC4)n3)cccc2c1=O [Compound 293] | A (Fold activation>200%) | A (EC1.5<1.0 μM) |
| COc1cccc(C(=O)Nc2cccc3c(=O)cc(-c4cccc(C(F)(F)F)c4)[nH]c23)n1 [Compound 422] | A (Fold activation>200%) | A (EC1.5<1.0 μM) |
| O=C(Nc1cccc2c(=O)cc(-c3cccc(C(F)(F)F)c3)[nH]c12)c1cnccn1 [Compound 409, N-(4-oxo-2-(3-(trifluoromethyl)phenyl)-1,4-dihydroquinolin-8-yl)pyrazine-2-carboxamide] | A (Fold activation>200%) | A (EC1.5<1.0 μM) |
| O=C(Nc1ccccn1)c1cccc2c(=O)[nH]c(-c3cccc(C(F)(F)F)c3)nc12 [Compound 218] | A (Fold activation>200%) | A (EC1.5<1.0 μM) |
| Cn1c(-c2cccc(C(F)(F)F)c2)nc2c(NC(=O)c3cocn3)cccc2c1=O [Compound 250] | B (Fold Activation<200%) | C (EC1.5>25 μM) |
| O=C(Nc1cnccn1)c1cccc2c(=O)cc(-c3cccc(Cl)c3)[nH]c12 [Compound 434] | B (Fold Activation<200%) | A (EC1.5<1.0 μM) |
| Cn1cncc1-c1nc2c(C(=O)Nc3ccccn3)cccc2c(=O)n1C [Compound 262] | B (Fold Activation<200%) | C (EC1.5>25 μM) |
| Cc1ncoc1C(=O)Nc1cccc2c(=O)n(C)c(-c3cccc(C(F)(F)F)c3)nc12 [Compound 230] | A (Fold activation>200%) | A (EC1.5<1.0 μM) |
| CC(C)Cn1c(-c2cccc(C(F)(F)F)c2)nc2c(NC(=O)c3cnccn3)cccc2c1=O [Compound 234] | A (Fold activation>200%) | A (EC1.5<1.0 μM) |
| O=C(NC1CCOCC1)c1cccc2c(=O)cc(-c3cccc(C(F)(F)F)c3)[nH]c12 [Compound 412] | A (Fold activation>200%) | B (EC1.5 1-25 μM) |
| O=C(Nc1ccccn1)c1cccc2c(=O)[nH]c(-c3cccc(C(F)F)c3)nc12 [Compound 319] | B (Fold Activation<200%) | C (EC1.5>25 μM) |
| O=C(Nc1nccs1)c1cccc2c(=O)cc(-c3ccccc3Cl)[nH]c12 [Compound 426] | A (Fold activation>200%) | A (EC1.5<1.0 μM) |
| O=C(Nc1cccc2c(=O)[nH]c(-c3ccccc3C(F)(F)F)nc12)c1cnccn1 [Compound 317] | A (Fold activation>200%) | A (EC1.5<1.0 μM) |
